In DBAASP one finds MIC data, which are given here for nine compounds.

Some test systems named below: Escherichia coli JM109; Pseudomonas aeruginosa; Staphylococcus aureus; Acinetobacter baumannii.
Common to all, as to experiment: ≥ marks a high value that may be exact or a test limit, other limits are often not marked, values filed in µg/mL are converted to µM
Assay [1] relates to Staphylococcus aureus ATCC 6538P.
Assay [2] concerns Klebsiella pneumoniae ATCC 700603.
The test system of assay [3] is Pseudomonas aeruginosa ATCC 27853.
Assay [4] deals with Escherichia coli ATCC 25922.
In assay [5] the test system is Staphylococcus aureus ATCC 29213.
The subject of assay [6] is Staphylococcus aureus ATCC 700699.
The subject of assay [7] is Staphylococcus aureus ATCC 33591.
The subject of assay [8] is Proteus mirabilis ATCC 25933.
For assay [9], the system named is Staphylococcus epidermidis RP62A/1.
In assay [10] the test system is Escherichia coli ATCC 25726.
Assay [11] deals with Staphylococcus epidermidis RP62A.
Assay [12] relates to Staphylococcus aureus ATCC 25923.
Assay [13] concerns Candida albicans ATCC 90028.
Assay [14] deals with Stenotrophomonas maltophilia.
The subject of assay [15] is Bacillus subtilis IFO 3513.
In assay [16] the test system is Staphylococcus aureus IFO 12732.
In assay [17] the test system is Escherichia coli IFO 12734.
Assay [18] concerns Micrococcus luteus ATCC 9341.

In brackets after ≈: the same amount, converted by molar mass.

For `CC[C@H](C)[C@H](NC(=O)[C@H](C)NC(=O)[C@H](CC(C)C)NC(=O)[C@H](CCCN=C(N)N)NC(=O)[C@H](CC(C)C)NC(=O)[C@H](C)N)C(=O)N[C@@H](CCCN=C(N)N)C(=O)N[C@@H](CCCN=C(N)N)C(=O)N[C@@H](CCCN=C(N)N)C(N)=O` [ALRLAIRRR], the minimal inhibitory concentration (MIC) in the assay on Escherichia coli JM109 was 1.33 µM (≈ 1.5 µg/mL); in [1], 1.78 µM (≈ 2 µg/mL); in the assay on Pseudomonas aeruginosa, 2.67 µM (≈ 3 µg/mL); against Staphylococcus aureus, greater than 42.7 µM.

`CC[C@H](C)[C@H](NC(=O)[C@H](CC(=O)O)NC(=O)[C@H](CCCCN)NC(=O)[C@H](C)NC(=O)[C@H](C)NC(=O)CNC(=O)[C@H](CCCCN)NC(=O)[C@H](CC(C)C)NC(=O)[C@@H](NC(=O)[C@H](CC(=O)O)NC(=O)[C@@H](NC(=O)[C@@H](NC(=O)CN)C(C)C)C(C)C)[C@@H](C)CC)C(=O)N[C@@H](C)C(=O)N[C@@H](C)C(=O)N[C@@H](Cc1cnc[nH]1)C(=O)N[C@@H](CC(C)C)C(=O)N[C@@H](C)C(=O)N[C@@H](CO)C(=O)N[C@@H](CCCCN)C(=O)N[C@H](C(=O)N[C@@H](CCSC)C(=O)N[C@@H](CC(N)=O)C(=O)N[C@@H](CCCCN)C(=O)N[C@@H](CC(C)C)C(N)=O)C(C)C` [GVVDILKGAAKDIAAHLASKVMNKL]: the MIC is 50 µM (≈ 128 µg/mL) in [2]; 100 µM (≈ 256 µg/mL) in assay [3]; 12.5 µM (≈ 32 µg/mL) in assay [4]; greater than 100 µM in [5]; no less than 100 µM in assay [6]; no less than 100 µM in assay [7].

Turning to `CC[C@H](C)[C@H](NC(=O)[C@H](CC(=O)O)NC(=O)[C@H](CCCCN)NC(=O)[C@H](C)NC(=O)[C@H](C)NC(=O)CNC(=O)[C@H](CCCCN)NC(=O)[C@H](CC(C)C)NC(=O)[C@@H](NC(=O)[C@H](CC(=O)O)NC(=O)[C@@H](NC(=O)[C@@H](NC(=O)CN)C(C)C)C(C)C)[C@@H](C)CC)C(=O)N[C@@H](C)C(=O)NCC(=O)N[C@@H](Cc1cnc[nH]1)C(=O)N[C@@H](CC(C)C)C(=O)N[C@@H](C)C(=O)N[C@@H](CO)C(=O)N[C@@H](CCCCN)C(=O)N[C@H](C(=O)N[C@@H](C)C(=O)N[C@@H](CC(N)=O)C(=O)N[C@@H](CCCCN)C(=O)N[C@@H](CC(C)C)C(N)=O)C(C)C` [GVVDILKGAAKDIAGHLASKVANKL], the MIC in assay [2] was greater than 100 µM; in assay [3], greater than 100 µM; in assay [4], greater than 100 µM; in assay [5], greater than 100 µM; in assay [6] it was no less than 100 µM; in [7], no less than 100 µM.

In the case of `CC[C@H](C)[C@H](N)C(=O)N[C@@H](CCCCN)C(=O)N[C@@H](CC(C)C)C(=O)N[C@@H](CO)C(=O)N[C@@H](CCCCN)C(=O)N[C@@H](CCC(=O)O)C(=O)N[C@H](C(=O)N[C@@H](CCCCN)C(=O)N[C@@H](CC(=O)O)C(=O)N[C@@H](CC(N)=O)C(=O)N[C@@H](CC(C)C)C(=O)N[C@@H](CCCCN)C(=O)N[C@@H](CCCCN)C(=O)N[C@H](C(=O)N[C@@H](CC(C)C)C(=O)N[C@@H](CCCCN)C(=O)NCC(=O)N[C@@H](C)C(=O)N[C@H](C(=O)N[C@@H](CCCCN)C(=O)NCC(=O)N[C@@H](C)C(=O)N[C@H](C(=O)N[C@@H](C)C(=O)N[C@H](C(=O)N[C@@H](C)C(=O)N[C@@H](CCCCN)C(=O)N[C@@H](CCSC)C(=O)N[C@H](C(N)=O)C(C)C)C(C)C)[C@@H](C)CC)[C@@H](C)CC)C(C)C)[C@@H](C)O` [IKLSKETKDNLKKVLKGAIKGAIAVAKMV], the MIC was no less than 100 µM in assay [8]; 1.6 µM (≈ 4.95 µg/mL) in [9]; 12.5 µM (≈ 38.7 µg/mL) in assay [2]; 6.25 µM (≈ 19.3 µg/mL) in the assay on Acinetobacter baumannii; 12.5 µM (≈ 38.7 µg/mL) in assay [10]; 1.6 µM (≈ 4.95 µg/mL) in [11]. Moreover, the MIC was 25 µM (≈ 77.4 µg/mL) in assay [3]; 6.25 µM (≈ 19.3 µg/mL) in assay [5]; 6.25 µM (≈ 19.3 µg/mL) in assay [12]; no less than 50 µM in assay [13]; 3.1 µM (≈ 9.59 µg/mL) in assay [14].

Take `CC[C@H](C)[C@H](N)C(=O)N[C@@H](CCCCN)C(=O)N[C@@H](CC(C)C)C(=O)N[C@@H](CO)C(=O)N[C@@H](CCCCN)C(=O)N[C@@H](CCC(=O)O)C(=O)N[C@H](C(=O)N[C@@H](CCCCN)C(=O)N[C@@H](CCCCN)C(=O)N[C@@H](CC(N)=O)C(=O)N[C@@H](CC(C)C)C(=O)N[C@@H](CCCCN)C(=O)N[C@@H](CCCCN)C(=O)N[C@H](C(=O)N[C@@H](CC(C)C)C(=O)N[C@@H](CCCCN)C(=O)NCC(=O)N[C@@H](C)C(=O)N[C@H](C(=O)N[C@@H](CCCCN)C(=O)NCC(=O)N[C@@H](C)C(=O)N[C@H](C(=O)N[C@@H](C)C(=O)N[C@H](C(=O)N[C@@H](C)C(=O)N[C@@H](CCCCN)C(=O)N[C@@H](CCSC)C(=O)N[C@H](C(N)=O)C(C)C)C(C)C)[C@@H](C)CC)[C@@H](C)CC)C(C)C)[C@@H](C)O` [IKLSKETKKNLKKVLKGAIKGAIAVAKMV]: the MIC was no less than 100 µM in [8]; 1.6 µM (≈ 4.97 µg/mL) in assay [9]; 6.25 µM (≈ 19.4 µg/mL) in assay [2]; 3.1 µM (≈ 9.63 µg/mL) in the assay with Acinetobacter baumannii; 6.25 µM (≈ 19.4 µg/mL) in [10]; 1.6 µM (≈ 4.97 µg/mL) in assay [11]. Besides, the MIC in assay [3] was 12.5 µM (≈ 38.8 µg/mL); in [5] it was 6.25 µM (≈ 19.4 µg/mL); in assay [12], 3.1 µM (≈ 9.63 µg/mL); in assay [13], no less than 50 µM; in assay [14] it was 3.1 µM (≈ 9.63 µg/mL).

Turning to `CC[C@H](C)[C@H](N)C(=O)N[C@@H](CC(C)C)C(=O)N1CCC[C@H]1C(=O)N[C@@H](CC(C)C)C(=O)N[C@@H](CCCCN)C(=O)N[C@@H](Cc1c[nH]c2ccccc12)C(=O)N1CCC[C@H]1C(=O)N[C@@H](Cc1c[nH]c2ccccc12)C(=O)N[C@@H](Cc1c[nH]c2ccccc12)C(=O)N1CCC[C@H]1C(=O)N[C@@H](Cc1c[nH]c2ccccc12)C(=O)N[C@@H](CCCN=C(N)N)C(=O)N[C@@H](CCCN=C(N)N)C(N)=O` [ILPLKWPWWPWRR], the MIC in assay [15] worked out at 1.71 µM (≈ 3.13 µg/mL); in assay [16], 1.71 µM (≈ 3.13 µg/mL); in [17], 13.6 µM (≈ 25 µg/mL).

`CC[C@H](C)[C@H](N)C(=O)N[C@@H](CC(C)C)C(=O)N1CCC[C@H]1C(=O)N[C@@H](Cc1c[nH]c2ccccc12)C(=O)N[C@@H](CCCCN)C(=O)N[C@@H](Cc1c[nH]c2ccccc12)C(=O)N1CCC[C@H]1C(=O)N[C@@H](Cc1c[nH]c2ccccc12)C(=O)N[C@@H](CC(C)C)C(=O)N1CCC[C@H]1C(=O)N[C@@H](Cc1ccc(O)cc1)C(=O)N[C@@H](CCCN=C(N)N)C(=O)N[C@@H](CCCN=C(N)N)C(N)=O` [ILPWKWPWLPYRR]: the results for the minimal inhibitory concentration (MIC) in assay [15], in assay [16] and in assay [17] were 1.73 µM (≈ 3.13 µg/mL), 3.45 µM (≈ 6.25 µg/mL) and 27.6 µM (≈ 50 µg/mL), respectively.

With `CC[C@H](C)[C@H](NC(=O)[C@H](C)NC(=O)[C@H](CC(C)C)NC(=O)[C@H](CS)NC(=O)[C@H](CC(C)C)NC(=O)[C@H](C)NC(=O)[C@H](C)NC(=O)[C@H](CS)NC(=O)[C@@H](N)CC(C)C)C(=O)NCC(=O)N[C@@H](CCCN=C(N)N)C(=O)N[C@@H](CCCN=C(N)N)C(N)=O` [LCAALCLAIGRR], the results for the MIC (in the assay on Escherichia coli JM109; in assay [1]; in the assay on Staphylococcus aureus) were 19.1 µM (≈ 24 µg/mL), 4.76 µM (≈ 6 µg/mL) and 38.1 µM (≈ 48 µg/mL), respectively.

For `CC[C@H](C)[C@H](NC(=O)[C@H](CC(C)C)NC(=O)[C@@H]1CCCN1C(=O)[C@H](Cc1c[nH]c2ccccc12)NC(=O)[C@H](CCCCN)NC(=O)[C@H](Cc1c[nH]c2ccccc12)NC(=O)[C@@H]1CCCN1C(=O)[C@H](Cc1c[nH]c2ccccc12)NC(=O)[C@H](Cc1c[nH]c2ccccc12)NC(=O)[C@@H]1CCCN1C(=O)[C@H](Cc1c[nH]c2ccccc12)NC(=O)[C@H](CCCN=C(N)N)NC(=O)[C@@H](N)CCCN=C(N)N)C(N)=O` [RRWPWWPWKWPLI], the MIC in assay [15] was 0.818 µM (≈ 1.56 µg/mL); in [18] it was 0.4 µM (≈ 0.763 µg/mL); in assay [16], 0.818 µM (≈ 1.56 µg/mL); in assay [17], 6.55 µM (≈ 12.5 µg/mL).
